Marks after values point to notes of the source that are not given here.
What was measured:
[1] = test system: metabotropic glutamate receptors; experiment: Displacement of 1S,3R-ACPD-sensitive [3H]glutamate binding to rat brain cell membranes; conditions: crude membranes of rat forebrain
[2] = test system: metabotropic glutamate receptors; experiment: as above; conditions: crude membranes of rat forebrain; for IC50: inhibition of [3H]glutamate binding
Method: The binding of [^3H]glutamate was conducted with crude membranes of rat forebrain as described by Schoepp and True. Schoepp and True, Neuroscience Lett., 145, 100-104 (1992) and True and Schoepp, Society for Neuroscience Abstracts, 19, 470 (1993). IC50 values for the inhibition of [^3H]glutamate binding, or the percent displacement of [^3H]glutamate binding at a 10 µM concentration, of the formula I compound, is shown in Table II.

[3] = test system: Rats; experiment: Conditioned active avoidance model; assay type: in vivo
Text: This model was developed in the early 50s and 60s (Pfeiffer & Jenney, Ann. N.Y. Acad. Sci., 66:[…], 1957; Maffii, J. Pharm. Pharmacol., 11: 129-139, 1959; Cook & Weidley, Ann; N.Y. Acad. Sci., 66: […], 1957; Janke, Handbook of Experimental Pharmacology, Vol. 55/I, New York: Plenum Press, 1978) and is still the primary model used to screen compounds for antipsychotic efficacy.
Rats were individually placed in a sound attenuated, two compartment test chamber. Active avoidance testing consisted of 20 trials each day. On each trial a light (130 v.) and a sound (85 dbA) were delivered simultaneously and 5 seconds later a 5 mA shock was delivered to the floor of the chamber. After 5 seconds the footshock, the light, and the sound were terminated. The animals learned to move from one side of the chamber to the other side when the light and sound cues were presented to avoid shock (avoidance responding) or the rat moved when the shock was administered (escape). Data were tabulated as mean percent escape or mean percent to avoidance for each test day. Prior to drug testing all animals were trained to successfully avoid shock delivery on 90% of trials.
This profile on conditioned avoidance is indicative of antipsychotic efficacy.

[4] = 0, 1, 3, 10 and 30mg/kg, i.p. 20 minutes prior to testing

For `NC(CC(Cc1ccccc1)Cc1ccccc1)(C(=O)O)[C@H]1C[C@@H]1C(=O)O` (mixture of isomers) [Example 51, 2SR- and 2RS-2-amino-2-(1SR,2SR-2-carboxycyclopropan-1-yl)-4-benzyl-5-phenylpentanoic acid], the “ACPD-Sensitive [^3H]Glutamate Binding % Displacement @ 1 µM” value ([1]; 1 µM compound) was “(15% @ 1 µM)”.

`NC(CCc1cccc(F)c1)(C(=O)O)[C@H]1C[C@@H]1C(=O)O` (mixture of isomers) [Example 81, 2SR- and 2RS-2-amino-2-(1SR,2SR-2-carboxycyclopropan-1-yl)-4-(3-fluorophenyl)butanoic acid] was tested, and the “ACPD-Sensitive [^3H]Glutamate Binding % Displacement @ 0.1 µM” value ([1]; 0.1 µM compound) was “(57% @ 0.1 µM)”.

In the case of `Cc1cccc(CCC(N)(C(=O)O)C2CC2C(=O)O)c1` (stereo not drawn) [Example 69, 2R-2-amino-2-(1R ,2R-2-carboxycyclopropan-1-yl)-4-(3-methylphenyl)butanoic acid], the “ACPD-Sensitive [^3H]Glutamate Binding % Displacement at 10 µM” value ([2]; 10 µM compound, 10 µM) is reported as “(13%)^d”.

`Cc1cccc(CCC(N)(C(=O)O)C2CC2C(=O)O)c1` [Example 70, 2S-2-amino-2-(1R,2R,2-carboxycyclopropan-1-yl)-4-(3-methylphenyl)butanoic acid] showed an IC50 [2] of 8100 nM.

With `N[C@@](CC1c2ccccc2Oc2ccccc21)(C(=O)O)[C@H]1C[C@@H]1C(=O)O` [Example 71, 2R-2 amino-2-(1S,2S-2-carboxycyclopropan-1-yl)-3-(dibenzopyran-4-yl)propanoic acid] the IC50 [2] was 530 nM.

In the case of `N[C@](CC1c2ccccc2Oc2ccccc21)(C(=O)O)[C@H]1C[C@@H]1C(=O)O` [Example 72], the IC50 [2] is reported as 14 nM, the avoidance responding [3, 4] is reported as “dose related decrease in avoidance responding” and the escape responding [3, 4] is reported as “not affecting escape responding”. For the same compound, the “activity in the conditioned active avoidance model” value ([3]; summary statement) was “active”.

`N[C@](Cc1cccc2c1Oc1ccccc1C2)(C(=O)O)[C@@H]1C[C@H]1C(=O)O` [Example 73, 2S-2 amino-2-(1R,2R-2-carboxycyclopropan-1-yl)-3-(dibenzopyran-4-yl)propanoic acid] showed an IC50 [2] of 860 nM.
